Patent US9504671B2, “Pharmaceutical compositions of spiro-oxindole compound for topical administration and their use as therapeutic agents” (Xenon Pharmaceuticals Inc., priority 2010, dated 2016)

Legend:
[1] = tested on: STZ-induced neuropathic pain model; test: STZ model of diabetic neuropathy, von Frey; format: in vivo, male Sprague-Dawley rats; conditions: 4% (w/w) topical composition, 50 mg on left foot, 30 minutes post-dosing, p<0.05
Source text: This study evaluates the efficacy of a pharmaceutical composition of the invention in the STZ-induced neuropathic pain model in male Sprague-Dawley rats, following acute dosing, as compared with a 5% (w/v) topical Lidocaine (Xylocaine®) and a 1.16% (w/v) topical Diclofenac (Voltaren®). A rodent model of painful peripheral diabetic neuropathy (PDN) that mimics human condition was created by inducing a diabetic state in the rat through the ablation of the insulin producing pancreatic beta cells. A single streptozotocin (STZ) injection destroys beta cells in rats and produces a diabetic state that over time progresses to painful Peripheral Diabetic Neuropathy (PDN).
Streptozotocin (STZ) was dissolved in citrate buffer (20 mM, pH 4.5) and administered at a dose of 60 mg/Kg, intraperitoneal, to induce pancreatic beta-cell death. Blood glucose level was measured once a week following injection, using the AccuSoft Blood Glucose Monitoring System. […] Hyperalgesia and allodynia, which are signs of diabetic neuropathic pain, were monitored using the von Frey test as described below. Von Frey measurements were recorded from both left and right paws. Only those with significant hyperalgesia as determined by reduced threshold, measured in grams, of paw withdrawal to the von Frey filament were enrolled in the study. […] During this time their health status was closely monitored.
The animals were randomly divided into 4 test groups (n=7 animals/group) including a vehicle control, a 5% (w/v) Lidocaine (Xylocaine®), a 1.16% (w/v) Diclofenac (Voltaren®), and a pharmaceutical composition with 4% (w/w) COMPOUND A. After baseline measurement, 50 mg of the test composition was applied on the entire left foot. […] The paw withdrawal thresholds of animals from mechanical tactile stimuli were measured using the Electrovonfrey anesthesiometer (Model 2290, IITC Life Science, Woodland Hills, Calif.). […] The force (g) required to elicit a crisp withdrawal response was recorded before dosing as a baseline measurement, and at 30 minutes post-dosing. […]

[2] = tested on: CFA-induced inflammatory pain model; test: CFA induced chronic inflammatory pain, von Frey mechanical paw withdrawal threshold; format: in vivo, rats; conditions: fourth day, 30 minutes post-dosing
Procedure: In this test, mechanical hyperalgesia is assessed with electronic von Frey filament by means of Electrovonfrey anesthesiometer (Model 2290, IITC Life Science, Woodland Hills, Calif.). Following a full week of acclimatization to the vivarium facility, 150 μL of the “Complete Freund's Adjuvant” (CFA) emulsion (CFA suspended in an oil/saline (1:1) emulsion at a final concentration of 0.5 mg/mL) was injected subcutaneously into the plantar surface of the left hind ankle joint of rats under light isoflurane anaesthesia. Animals were allowed to recover from the anaesthesia and the baseline mechanical nociceptive thresholds of all animals were assessed one week after the administration of CFA. All animals were habituated to the experimental chambers for 20 minutes on the day of the experiment. The animals were then randomly assigned to 5 different test groups including a vehicle control group and 4 pharmaceutical compositions with COMPOUND A at 1%, 2%, 4% and 8% (w/w) groups. After baseline measurements, animals were anaesthetized under isoflurane, shaved at the site of application, and then dosed by application of 50 mg test compositions on the entire ipsilateral hind ankle and foot. Animals were then placed in Plexiglas tubes for 30 minutes to prevent early removal/ingestion of drug. Test compositions were applied twice a day for 3 days. On the fourth day, immediately after application, animals were placed in tubes for 15 minutes and then removed and placed in Plexiglas enclosures for 15 minutes prior to making paw withdrawal measurements. Von Frey withdrawal thresholds were measured as the mean of several independent determinations made within 1-2 minutes of each other on the affected paw of each animal 30 minutes post-dosing. The time point used was previously determined to show the highest analgesic effect for each test composition.
The response thresholds of animals to tactile stimuli were measured using the Model 2290 Electrovonfrey anesthesiometer (IITC Life Science, Woodland Hills, Calif.). Animals were placed in an elevated Plexiglas enclosure set on a mire mesh surface. After 15 minutes of accommodation, a von Frey hair was applied perpendicularly to the plantar surface of the ipsilateral hind paws of the animals with sufficient force, measured in grams, to elicit a crisp response of the paw. The response indicated a withdrawal from the painful stimulus and constituted the efficacy endpoint.

With `O=C1N(Cc2ccc(C(F)(F)F)o2)c2ccccc2[C@]12COc1cc3c(cc12)OCO3` [COMPOUND A, (S)-1′-{[5-(trifluoromethyl)furan-2-yl]methyl}spiro[furo[2,3-f][1,3]benzodioxole-7,3′-indol]-2′(1′H)-one] the “paw withdrawal threshold of treated paw, percent mean change from baseline (CFB)” value [1] was 44.9%, the “von Frey mechanical paw withdrawal threshold, percent CFB” value ([2]; 1% (w/w) topical composition) was “did not demonstrate an observable increase” and the “von Frey mechanical paw withdrawal threshold, percent CFB” value ([2]; 2% (w/w) topical composition) was “statistically significant increases”. The “von Frey mechanical paw withdrawal threshold, percent CFB” value ([2]; 4% (w/w) topical composition) was “statistically significant increases”, the “von Frey mechanical paw withdrawal threshold, percent change from baseline (CFB)” value ([2]; 8% (w/w) topical composition, 50 mg twice a day for 3 days) was “+45.1%” and the “von Frey mechanical paw withdrawal threshold, percent CFB” value ([2]; 8% (w/w) topical composition) was “statistically significant increases”.
